Measured values reported in patent US7763654B2, “Crystal polymorph of hydroxynorephedrin derivative hydrochloride” (Kissei Pharmaceutical Co., Ltd., priority 2005, dated 2010).

Key:
[1] = Stability Test 1 (60° C.), storage for a week; HPLC, powder X-ray diffraction, appearance; format: physicochemical; conditions: for residual percentage (chemical purity %): HPLC; for crystal form: powder X-ray diffraction
Method: (§1) The powder X-ray diffraction data of each crystal polymorph were measured by X-ray diffractometer RINT 2100 ultima+manufactured by Rigaku Denki Corporation (measuring conditions; CuK α rays, 40 kV in X-ray tube voltage, 40 mA in X-ray tube current). The 2θ value of diffraction pattern by the powder X-ray diffractometry may deviate in some cases by a factor of about 0.5° depending on the sample conditions and measuring conditions. In addition, due to the properties of data, a total diffraction pattern of the powder X-ray diffractometry is important for the identification of crystals. The TG/DTA measurements of each crystal polymorph were conducted by thermogravimetry analyzer (TG/DTA) ThermoPlus 2 series TG8120 manufactured by Rigaku Denki Corporation (measuring conditions; temperature rising rate 10° C./minutes, samplepan (Al), reference (Al2O3), under a nitrogen atmosphere). Melting points of each crystal were searched from differential thermal analysis (DTA) endothermic peak (extrapolation). The solid state C^13-NMR spectrums of each crystal polymorph were measured by AVANCE/DRX500 manufactured by Bruker (measuring conditions; accumulated counts 512 times, contact time 3 msec, repeated time 5 sec, probe 4 mm MAS, observed frequency 125.77 Mhz, spinning rate 10000 Hz).
After ethyl (−)-2-[4-[2-[[(1S,2R)-2-hydroxy-2-(4-hydroxyphenyl)-1-methylethyl]amino]ethyl]-2,5-dimethylphenoxy]-acetate hydrochloride obtained in Example 1 was stored at 60° C. for a week, chemical stability was determined by measuring the residual percentage of ethyl (−)-2-[4-[2-[[(1S,2R)-2-hydroxy-2-(4-hydroxylphenyl)-1-methylethyl]amino]ethyl]-2,5-dimethylphenoxy]acetate hydrochloride by HPLC and polymorphic stability was examined by the powder X-ray diffraction measurement.

[2] = Stability Test 2 (140° C.), heating, powder X-ray diffraction; format: physicochemical; conditions: after heating to 140° C.
Method: as §1, with “Hz). […]” for “Hz).”

[3] = after 1 week storage at 60° C., hydrochloride
[4] = after 1 week storage at 60° C., listed as crystal form C, hydrochloride

Structure (SMILES): CCOC(=O)COc1cc(C)c(CCN[C@@H](C)[C@H](O)c2ccc(O)cc2)cc1C.Cl [crystalline form C, ethyl (−)-2-[4-[2-[[(1S,2R)-2-hydroxy-2-(4-hydroxyphenyl)-1-methylethyl]amino]ethyl]-2,5-dimethylphenoxy]-acetate hydrochloride]
- residual percentage (chemical purity %) [1, 3]: constant
- residual percentage (chemical purity %) [1, 4]: 99.6%
- appearance [1, 3]: no change in appearance
- appearance [1, 4]: white
- crystal form [1, 3]: polymorphic transformation did not occur
- crystal form [1, 4]: crystal form C
- appearance ([1]; at start): white
- residual percentage (chemical purity %) ([1]; at start): 99.6%
- crystal form ([1]; at start): crystal form C
- change of the crystalline form [2]: still crystalline form C
